Entries after “also recorded” stand apart in the source; their conditions may differ. Where two headings read alike, the source gives them in different places.
Key:
SLE patients [1] = assay: PRELUDE Study, phase 2 placebo-controlled efficacy, tolerability and safety study of three doses of Edratide; conditions: for early withdrawal due to AE, % of subjects: placebo 2.3%; for AE incidence: 26 weeks, placebo 79.3%
Description: The total study treatment duration was 26 weeks. Scheduled visits were performed at screening, baseline and at weeks 4, 8, 12, 16, 20, 24, and 26 (termination). […] Non-compliance with the tapering down scheme was not regarded as a protocol violation. During the entire course of the study it was allowed to increase the steroid prednisolone dose to up to 60 mg. Use of intravascular/intramuscular steroid was considered a protocol violation. […] PK assessment of CAPTISOL® for all four treatment groups was conducted following the first dose and Weeks 12 and 26 doses. Disease and drug related immunology parameters were tested at baseline and at several time points thereafter.
The main inclusion criteria of this trial were: • SLEDAI 2K score of 6-12 • Stable concomitant medications (prednisone<40 mg, NSAIDs, antimalarials) for at least 1 month prior to baseline.
The co-primary end-points presented in their hierarchical order below were: • Change from baseline to last observed value (LOV) in SLEDAI 2K score (Landmark Analysis.) • Adjusted Mean SLEDAI 2K (AMS). AMS represents the time weighted average of disease activity as measured by SLEDAI 2K score [area under the curve (AUC) of SLEDAI 2K].
Secondary end-points: • BILAG proportion of responders. BILAG responders were defined as: • a. Non Responder (NR)—same BILAG score in Last Observed Value (LOV) as in baseline in all systems or new A or B in at least one system compared to baseline (other systems may improve or deteriorate). • b. Substantial Responder (SR)—all systems at LOV are either C or D/E providing that at least one system was either A or B at baseline • c. […] Mental component Score. Change from baseline to LOV • SF-36 (QoL) Physical component Score—Change from Baseline to LOV • Time Weighted Average (TWA) on cumulative steroids dose with p.o. administration.
Exploratory end-points: • Primary end-point sensitivity analysis to steroid increase (excluding the observations following steroid increase) • Proportions of Zero SLEDAI Score at LOV • Time to Zero SLEDAI Score • BILAG Total Score—Change from Baseline to LOV
Flares Analysis: • Time to medicinal flare • Time to new BILAG A or at least two new B's • Time to new BILAG A or at least two new B's (excluding persistent activity) • Steroid dose (PO)—Change from baseline to LOV • PGA—Physician's Global Assessment

[2] = test system: SLE patients with stable, mild to moderate SLE disease; conditions: cited from earlier work
[3] = test system: mice afflicted with spontaneous or experimental SLE; conditions: mouse, in vivo; cited from earlier work
SLE patients [4] = conditions: cited from earlier work; for incidence of adverse events (AEs), % of the subjects: placebo 75%
[5] = test system: peripheral blood lymphocytes (PBL) of SLE patients; conditions: cited from earlier work
subjects with active SLE = assay: Low dose Edratide therapy, 26-week phase 2 dose-ranging study (Example 2); assay type: in vivo, human
Text: The study will test about 200 study subjects, in about 50 centres. The study population will include seropositive SLE patients (presence of anti-dsDNA antibodies by FARRzyme immunoassay, titer ≥30 IU, and/or the Crithidia luciliae immunofluorescence test, and/or antinuclear antibodies (ANA) ≥1:160 or 1:80 in which case the Adjudication Committee would review the subject's data at baseline.
The total duration of the study is expected to be 34 weeks: • Screening Phase: <30 days (4 weeks) • Phase 2 double-blind treatment phase: 26 weeks (6 months) • Follow-up phase for safety: 4 weeks
Glucocorticoid dosing: It is highly recommended to initiate tapering from the baseline dose of prednisone/prednisone equivalent on or after week 4, as clinically indicated from doses ≥15 mg/day to ≥7.5 mg/day; tapering could continue until week 18. No changes in dose of prednisone/prednisone equivalent doses are allowed during weeks 19-26, the last 8 weeks of the trial. No specific tapering regimen is required, but to be determined as clinically indicated by the investigator.
Active SLE patients will be screened for up to 30 days prior to the baseline visit (visit 2). Each subject will undergo screening evaluations.
The subjects must meet the following inclusion criteria: • 1.Subjects diagnosed with SLE must have a documented medical history to meet Systemic Lupus International […] (SLICC) classification criteria for SLE, or have accumulated 4 classification criteria (1997 revised) of the American College of Rheumatology (ACR) for SLE prior to first dose. • 2. Subjects with active SLE must have: • a. At least one BILAG-A and/or two BILAG-B's, and • b. SLEDAI score of 6 or higher, excluding serology scores, and be • c. Serologically-positive as defined by 2 positive ANA or anti-dsDNA antibody test results (titer ≥30 IU by FARR radioimmunoassay and/or the Crithidia luciliae immunofluorescence test, and/or ANA 1:160 or 1:80 in which case the adjudication committee would review the subject's data) of which ≥1 test result must be obtained during screening • 3. Subjects must be ≥18 years of age • 4. SLE patients on stable SLE treatment regimen for at least three (3) months • 5. SLE patients on 15 mg of prednisone/prednisone equivalent, which have been stable for at least 14 days • 6. Subjects receiving 2 g/days of Mycophenolate mofetil (MMF) or ≤1440 mg of Myfortic • 7. Women of child-bearing potential must practice a medically acceptable method of contraception. Acceptable methods include: surgical sterilization, IUD, hormonal preparations, or double barrier method (e.g. condom or diaphragm with spermicidal) • 8. Subjects must be willing and able to give written informed consent prior to entering the study. • 9. Subjects must understand the requirements of the study and agree to comply with the study protocol.
The presence of any of the following excludes a subject from study enrollment: • i. Subjects with active Lupus nephritis as defined by a protein to creatinine ratio limit of ≥0.75 and/or active urine sediments defined as hematuria (>10 RBC/HPF) and/or RBC casts. • ii. Subjects with active central nervous system (CNS) Lupus as defined by CNS BILAG-A or BILAG-B. • iii. Subjects with active peripheral nervous system (PNS) Lupus as defined by PNS BILAG-A or BILAG-B. • iv. Subjects receiving >15 mg of glucocorticoid at baseline • v. Subjects having recently received • a. Cyclophosphamide (wash-out period 3 months), • b. Cyclosporine (wash-out period 3 months), • c. Rituximab (wash-out period at least 52 weeks provided that the CD19 count has returned to normal), or • d. Belimumab (wash-out period 6 months) • e. Any investigational drug (wash-out period 5 half-lives of elimination) […]

Substance: H-GYYWSWIRQPPGKGEEWIG-OH [Edratide]
- post hoc analysis on BILAG responders, system improved (SLE patients [1]; 0.5 mg Edratide): improvement mainly in the cutaneous system
- Serious Adverse Events (SAEs), % of subjects (SLE patients [1]; 0.5 mg Edratide (6 subjects), placebo 10.3%): 7.1%
- Serious Adverse Events (SAEs), % of subjects (SLE patients [1]; 1.0 mg dose group (10 subjects), placebo 10.3%): 11.5%
- Serious Adverse Events (SAEs), % of subjects (SLE patients [1]; 2.5 mg dose group (8 subjects), placebo 10.3%): 9.8%
- early withdrawal due to AE, % of subjects (SLE patients [1]; Edratide 0.5 mg (5 subjects)): 6.0%
- deaths during the study (SLE patients [1]; Edratide 0.5 mg group, most probably septic shock, classified as not related to study drug): One
- AE incidence (SLE patients [1]; Edratide 0.5 mg sc): 82.1%
- BILAG substantial responders, % of subjects (SLE patients [1]; Edratide 0.5 mg, ITT, LOV vs baseline, placebo 22%, p=0.03): 36%
- subjects with a medicinal flare (SLE patients [1]; Edratide 0.5 mg, ITT, post hoc, n=14, placebo 29% (n=25), p=0.039): 17%
- medicinal flare, OR vs placebo (SLE patients [1]; Edratide 0.5 mg, ITT, post hoc, p=0.039): 0.43
- BILAG substantial response, odds ratio (OR) vs placebo (SLE patients [1]; Edratide 0.5 mg, ITT, p=0.03, not significant after multiplicity adjustment): 2.09
- change in the SF-36 mental score compared to placebo (SLE patients [1]; Edratide 0.5 mg, opposite trend for the physical score): slightly better
- early withdrawal due to AE, % of subjects (SLE patients [1]; Edratide 1.0 mg (3 subjects)): 3.4%
- AE incidence (SLE patients [1]; Edratide 1 mg sc): 77%
- BILAG substantial responders, OR vs placebo (SLE patients [1]; Edratide 1 mg, p=0.07 without correction for multiple comparison): 1.85
- early withdrawal due to AE, % of subjects (SLE patients [1]; Edratide 2.5 mg (3 subjects)): 3.7%
- AE incidence (SLE patients [1]; Edratide 2.5 mg sc): 75.6%
- safety signal and dose response from the AEs analysis and additional safety data (SLE patients [1]; Edratide 0.5, 1 and 2.5 mg): no clear dose response and no significant safety signal
- early terminations due to AEs vs placebo (SLE patients [1]; Edratide vs placebo): more often on Edratide than on placebo
- cSRI positive responders (SLE patients [1]; ITT, n=26, placebo 20% (n=17), p=0.058, FIG. 4): 34%
- BILAG non-responders, seropositive patients (SLE patients [1]; anti-DNA>30 IU at baseline, n=11, placebo 68% (n=21), p=0.05): 42%
- BILAG substantial responders, seropositive patients (SLE patients [1]; anti-DNA>30 IU at baseline, placebo 26%, FIG. 2C): 46%
- co-primary endpoints (change from baseline to LOV in SLEDAI 2K score; adjusted mean SLEDAI 2K) vs placebo (SLE patients [1]; any of the active treatment groups (0.5, 1, 2.5 mg)): no differences
- SF-36 mental or physical scores, differences between the treatment groups (SLE patients [1]; change from baseline to LOV): No clinically or statistically significant differences
- cumulative change in steroid dose throughout the study, differences between the treatment groups (SLE patients [1]; mean baseline steroids dose 9-10 mg/day of prednisolone): No clinically or statistically significant differences
- BILAG substantial responders, % of subjects (SLE patients [1]; no steroids at baseline, 0.5 mg Edratide, placebo 13%, p=0.05): 54%
- mean reduction from baseline SLEDAI-2K score (SLE patients [1]; overall, regardless of treatment): about 35%
- SAE incidence (SLE patients [1]; pooled Edratide group, placebo 10.3%): 9.5%
- BILAG substantial responders, % of subjects (SLE patients [1]; prednisolone dose <20 mg at baseline (pooled cohort of 292 subjects), placebo 19%, p=0.007, FIG. 2B): 40%
- BILAG substantial response, OR vs placebo (SLE patients [1]; prednisolone dose <20 mg at baseline, p=0.007): 2.75
- subjects with an increase in total SLEDAI-2K score of 0-3 points during the study ([2]; 0.5 mg group): Two
- subjects with an increase in total SLEDAI-2K score of 0-3 points during the study ([2]; 2.5 mg group): 2 subjects
- subjects reporting AEs during the 8-week follow-up period (off-drug) ([2]; all treatment groups): Approximately 50%
- adjusted mean SLEDAI (AMS) score, change from baseline to termination visit ([2]; all treatment groups, decrease = improvement): −0.1 to −1.5 points
- mean group total BILAG score during the study ([2]; any treatment group): No trend
- overall incidence of AEs between all treatment groups ([2]; sc twice weekly for 4 weeks, 0.5, 1 or 2.5 mg vs placebo): no prominent difference
- serious adverse events (SAE) throughout the study ([2]; sc twice weekly for 4 weeks, 0.5, 1 or 2.5 mg): No SAE was reported
- severity of injection site reactions ([2]; sc twice weekly for 4 weeks, all treatment groups): mild
- disease manifestations of mice afflicted with spontaneous or experimental SLE [3]: ameliorate disease manifestations
- change of total SLEDAI-2K score during the study (SLE patients [4]; single sc 0.5, 1 or 2.5 mg, any subject except one in the 0.5 mg group (2 to 10 points at Week 4)): No noteworthy change
- incidence of adverse events (AEs), % of the subjects (SLE patients [4]; single sc injection 0.5 mg): 33%
- incidence of adverse events (AEs), % of the subjects (SLE patients [4]; single sc injection 1 mg): 67%
- incidence of adverse events (AEs), % of the subjects (SLE patients [4]; single sc injection 2.5 mg): 80%
- proliferative response of PBL of SLE patients to the human anti-DNA 16/6Id mAB [5]: inhibit the proliferative response
- global assessment of disease activity based on MCID (subjects with active SLE; 0.25 mg sc every week): significant improvement
- mean Lupus-QOL relative to baseline (subjects with active SLE; 0.25 mg sc every week): significant improvement
- mean time to first confirmed major SLE flare (subjects with active SLE; 0.25 mg sc every week, Fortin definition): significantly increased
- mean time to first confirmed severe SLE flare (subjects with active SLE; 0.25 mg sc every week, new BILAG A or two new BILAG B): significantly increased
- disease parameter/s (subjects with active SLE; 0.25 mg sc every week, specific sub-populations of SLE subjects): improvements of disease parameter/s; also recorded: improvement of at least one disease parameter
- mean glucocorticoid dose relative to baseline (subjects with active SLE; 0.25 mg sc every week, week 26): significant change
- proportion of subjects achieving MCID of one by SLEDAI-2K Responder Index 50 (subjects with active SLE; 0.25 mg sc every week, week 26): significant proportion
- proportion of subjects achieving a response by composite SLE Responder Index (cSRI) (subjects with active SLE; 0.25 mg sc every week, week 26): significant proportion
- proportion of subjects achieving response by the SLE Responder Index (subjects with active SLE; 0.25 mg sc every week, week 26): significant proportion
- proportion of subjects having all organ systems either BILAG C or BILAG D/E (subjects with active SLE; 0.25 mg sc every week, week 26): significant proportion
- proportion of subjects with at least one BILAG A or B organ system at baseline dropping by one score without deterioration to BILAG A or B in any other system (subjects with active SLE; 0.25 mg sc every week, week 26, primary outcome): significant proportion
- reduction of the amount of corticosteroid therapy required to control disease activity of SLE (subjects with active SLE; weekly 0.25 mg dose): effective in enabling reduction

From patent US20200338195A1, “PHARMACEUTICAL COMPOSITIONS COMPRISING 0.25 MG DOSE OF SYNTHETIC HUMAN PEPTIDES FOR TREATING SYSTEMIC LUPUS ERYTHEMATOSUS” (priority 2016, published 2020)
